The structures appear in SMILES notation. A value given as a limit tells only on which side of the number the result lay.

This experiment deals with HCV replication. As to the kind of experiment: Replicon Assay (Huh-lucubineo-ET cells, luciferase readout). The experiment is classed as cell-based. As to conditions: Hepatitis C virus; ET (Huh-lucubineo-ET) HCV replicon cell line; luciferase activity 48-72 hours after compound addition; 6 dilutions. The procedure: A cell line, ET (Huh-lucubineo-ET) was used for screening of compounds of the present invention for inhibition of HCV replication. The ET cell line was stably transfected with RNA transcripts harboring a I389luc-ubi-neo/NS3-3′/ET; replicon with firefly luciferase-ubiquitin-neomycin phosphotransferase fusion protein and EMCV-IRES driven NS3-5B polyprotein containing the cell culture adaptive mutations (E1202G; T1280I; K1846T) (Krieger at al, 2001 and unpublished). The ET cells were grown in DMEM, supplemented with 10% fetal calf serum, 2 mM Glutamine, Penicillin (100 IU/mL)/Streptomycin (100 μg/mL), 1× nonessential amino acids, and 250 μg/mL G418 (“Geneticin”). They were all available through Life Technologies (Bethesda, Md.). The cells were plated at 0.5−1.0×10^4 cells/well in the 96 well plates and incubated for 24 hrs before adding the test compounds. The compounds were then added to the cells to achieve a final concentration of 5 or 50 μM. Luciferase activity was measured 48-72 hours later by adding a lysis buffer and the substrate (Catalog number Glo-lysis buffer E2661 and Bright-Glo luciferase system E2620 Promega, Madison, Wis.). Cells should not be too confluent during the assay. Percent inhibition of replication was plotted relative to no compound control. For EC50 (effective concentration at which 50% of the maximum inhibition is observed) determinations, 6 dilutions of each compound were used. Compounds were typically diluted 3 fold to span a concentration range of 250 fold. EC50 and similarly TC50 values were calculated by fitting % inhibition at each concentration to the following equation:
% inhibition=100%/[(EC50/[I])^b+1]
where b is Hill's coefficient.
On to `CCCOc1ccc(-c2ccc(Cn3cc4nc(-c5cccc(F)c5F)nc-4cn3)cn2)c(C)c1` [Compound 234, 2-(2,3-Difluoro-phenyl)-5-[6-(2-methyl-4-propoxy-phenyl)-pyridin-3-ylmethyl]-5H-imidazo[4,5-d]pyridazine], for which the EC50 turned out to be 1210 nM.

Turning to `CCc1ccc(-c2ccc(Cn3cc4nc(-c5cccc(F)c5F)nc-4cn3)nn2)cc1` [Compound 206, 2-(2,3-Difluoro-phenyl)-5-[6-(4-ethyl-phenyl)-pyridazin-3-ylmethyl]-5H-imidazo[4,5-d]pyridazine], the EC50 is not below 50000 nM. As to `Fc1cccc(-c2nc3cnn(Cc4ccc(-c5cncnc5)cc4)cc-3n2)c1F` [Compound 293, 2-(2,3-Difluoro-phenyl)-5-(4-pyrimidin-5-yl-benzyl)-5H-imidazo[4,5-d]pyridazine], the EC50 is not below 50000 nM. The same measure for `CC(C)(C)c1ccc(-c2ccc(Cn3cc4nc(-c5cccc(F)c5F)nc-4cn3)nn2)cc1` [Compound 215, 5-[6-(4-tert-Butyl-phenyl)-pyridazin-3-ylmethyl]-2-(2,3-difluoro-phenyl)-5H-imidazo[4,5-d]pyridazine]: 11600 nM; for `Fc1cccc(-c2nc3cnn(Cc4ccc(-c5ccc(C(F)(F)F)cc5C(F)(F)F)nn4)cc-3n2)c1F` [Compound 104, 5-[6-(2,4-Bis-trifluoromethyl-phenyl)-pyridazin-3-ylmethyl]-2-(2,3-difluoro-phenyl)-5H-imidazo[4,5-d]pyridazine]: 60 nM; for `Fc1cccc(-c2nc3cnn(Cc4ccc(-c5ccc(C(F)(F)F)cc5)cn4)cc-3n2)c1F` [Compound 246, 2-(2,3-Difluoro-phenyl)-5-[5-(4-trifluoromethyl-phenyl)-pyridin-2-ylmethyl]-5H-imidazo[4,5-d]pyridazine]: not below 50000 nM. Then `COc1ccc(-c2ccc(Cn3cc4nc(-c5cccc(F)c5F)nc-4cn3)c(-c3ccc(OC)cc3C(F)(F)F)n2)c(C(F)(F)F)c1` [Compound 252, 5-[2,6-Bis-(4-methoxy-2-trifluoromethyl-phenyl)-pyridin-3-ylmethyl]-2-(2,3-difluoro-phenyl)-5H-imidazo[4,5-d]pyridazine], with 2640 nM; and `COc1ccc(-c2ccc(Cn3cc4nc(-c5cccc(F)c5F)nc-4cn3)cc2F)c(C(F)(F)F)c1` [Compound 261, 2-(2,3-Difluoro-phenyl)-5-(2-fluoro-4′-methoxy-2′-trifluoromethyl-biphenyl-4-ylmethyl)-5H-imidazo[4,5-d]pyridazine], with 50 nM. The same measure for `CCCOc1ccc(-c2ncc(Cn3cc4nc(-c5ccccc5F)nc-4cn3)cn2)c(C(F)(F)F)c1` [Compound 362, 2-(2-Fluoro-phenyl)-5-[2-(4-propoxy-2-trifluoromethyl-phenyl)-pyrimidin-5-ylmethyl]-5H-imidazo[4,5-d]pyridazine]: 19 nM; for `Fc1cc(-c2ccc(C(F)(F)F)cc2C(F)(F)F)ccc1Cn1cc2nc(-c3cccc(F)c3F)nc-2cn1` [Compound 257, 2-(2,3-Difluoro-phenyl)-5-(3-fluoro-2′,4′-bis-trifluoromethyl-biphenyl-4-ylmethyl)-5H-imidazo[4,5-d]pyridazine]: 45 nM; for `COc1ccc(-c2ccc(Cn3cc4nc(-c5cccc(F)c5F)nc-4cn3)c(OC)c2)c(C(F)(F)F)c1` [Compound 294, 2-(2,3-Difluoro-phenyl)-5-(3,4′-dimethoxy-2′-trifluoromethyl-biphenyl-4-ylmethyl)-5H-imidazo[4,5-d]pyridazine]: 473 nM.

`Fc1cccc(-c2nc3cnn(Cc4ccc5nsnc5c4)cc-3n2)c1F` [Compound 276, 5-Benzo[1,2,5]thiadiazol-5-ylmethyl-2-(2,3-difluoro-phenyl)-5H-imidazo[4,5-d]pyridazine] showed an EC50 not below 50000 nM.

`COc1ccc(-c2ccc(Cn3cc4nc(-c5cccc(F)c5F)nc-4cn3)nn2)cc1` [Compound 105, 2-(2,3-Difluoro-phenyl)-5-[6-(4-methoxy-phenyl)-pyridazin-3-ylmethyl]-5H-imidazo[4,5-d]pyridazine] returned an EC50 of 7400 nM.

Source of the values: patent publication US20090226398A1, “ANTI-VIRAL COMPOUNDS, COMPOSITIONS, AND METHODS OF USE” (Genelabs Technologies, Inc., priority 2008, published 2009).
